We go through 4 compounds from patent US20250049817A1, “JAK INHIBITOR WITH A VITAMIN D ANALOG FOR TREATMENT OF SKIN DISEASES” (INCYTE CORPORATION, priority 2020, published 2025).

Some results are limits rather than exact numbers.

Experiment [1] relates to human JAK1 (a.a. 837-1142). Kind of experiment: In vitro JAK kinase assay (HTRF), JAK1. It is filed as biochemical. The following applies: JAK2/JAK1 IC50 ratio, 1 mM ATP.
Experiment [2] deals with human JAK1 (a.a. 837-1142) (Homo sapiens, UniProt P23458). Kind of experiment: In vitro JAK kinase assay (HTRF), JAK1. It is filed as biochemical. The following applies: 1 mM ATP.
The test system of experiment [3] is T cells in psoriasis lesions. The following applies: psoriasis patients, topical treatment, skin biopsies; cited from earlier work.
The subject of the next experiment is keratinocyte cell line. The following applies: concentration-dependent; read-out: IC50 for decreasing keratinocyte cell line proliferation; cited from earlier work.

With `N#CC[C@]1(n2cc(-c3ncnc4[nH]ccc34)cn2)C[C@H](N2CCC(Oc3cc(CCO)cc(C(F)(F)F)n3)CC2)C1` [Compound 26, {trans-3-(4-{[4-(2-hydroxyethyl)-6-(trifluoromethyl)pyridin-2-yl]oxy}piperidin-1-yl)-1-[4-(7H-pyrrolo[2,3-d]pyrimidin-4-yl)-1H-pyrazol-1-yl]cyclobutyl]acetonitrile], in experiment [1], the JAK2/JAK1 is over 10. Further, in experiment [2], the IC50 was under 10 nM.

Consider `C=C1/C(=C\C=C2/CCC[C@]3(C)[C@@H]([C@H](C)/C=C/[C@@H](O)C4CC4)CC[C@@H]23)C[C@@H](O)C[C@@H]1O` [calcipotriol], for which, in experiment [3], the “CD8(+) IL-17(+) T cells” value is given as “significant decrease” and the “frequency of IL-22(+) or IFN-γ(+) cells in psoriasis lesions” value is recorded as “no changes”. Further, the IC50 in the experiment on keratinocyte cell line is 10 to 100 nM.

For the compound `C=C1/C(=C\C=C2/CCC[C@]3(C)[C@@H]([C@H](C)OCCC(C)(C)O)CC[C@@H]23)C[C@@H](O)C[C@@H]1O` [maxacalcitol], in the experiment on keratinocyte cell line, the IC50 is 10 to 100 nM.

`C=C1/C(=C\C=C2/CCC[C@]3(C)[C@@H]([C@H](C)CC[C@@H](O)C(C)C)CC[C@@H]23)C[C@@H](O)C[C@@H]1O` [tacalcitol]: the IC50 with keratinocyte cell line was 10 to 100 nM.
